Results as given in ChEMBL document CHEMBL1151064, “Conformationally restricted 1,5-diarylpyrazoles are selective COX-2 inhibitors” (Bioorg Med Chem Lett, 1996).

Assays:
[1] = biological target: T1, Prostaglandin G/H synthase 1 (Homo sapiens, UniProt P23219); experiment: Relative activity against COX-1/COX-2
[2] = biological target: T1, Prostaglandin G/H synthase 1; experiment: Inhibition of Prostaglandin G/H synthase 1 (COX-1)
[3] = biological target: T2, Prostaglandin G/H synthase 2 (Homo sapiens, UniProt P35354); experiment: Inhibition of Prostaglandin G/H synthase 2 (COX-2)
T2 sequence (P35354 whole entry): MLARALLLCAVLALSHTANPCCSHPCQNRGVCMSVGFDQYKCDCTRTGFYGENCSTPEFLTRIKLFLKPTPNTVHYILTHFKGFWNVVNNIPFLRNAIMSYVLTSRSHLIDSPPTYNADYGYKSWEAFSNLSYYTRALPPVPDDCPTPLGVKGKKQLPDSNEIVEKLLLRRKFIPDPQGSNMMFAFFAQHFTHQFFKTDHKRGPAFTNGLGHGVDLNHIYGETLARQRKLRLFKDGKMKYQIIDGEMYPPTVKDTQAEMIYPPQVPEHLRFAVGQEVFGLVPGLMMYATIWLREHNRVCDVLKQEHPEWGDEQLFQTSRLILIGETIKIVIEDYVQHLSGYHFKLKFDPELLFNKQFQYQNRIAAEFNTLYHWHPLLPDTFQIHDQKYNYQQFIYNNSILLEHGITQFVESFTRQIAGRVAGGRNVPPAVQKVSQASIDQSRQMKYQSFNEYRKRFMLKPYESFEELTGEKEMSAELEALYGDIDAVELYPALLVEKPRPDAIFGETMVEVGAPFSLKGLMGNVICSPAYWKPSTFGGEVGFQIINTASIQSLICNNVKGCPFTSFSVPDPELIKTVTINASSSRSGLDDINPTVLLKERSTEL

Rattus norvegicus = experiment: Compound was tested for inhibitory activity in carrageenan rat foot edema assay; type: functional

T1 sequence (P23219 whole entry): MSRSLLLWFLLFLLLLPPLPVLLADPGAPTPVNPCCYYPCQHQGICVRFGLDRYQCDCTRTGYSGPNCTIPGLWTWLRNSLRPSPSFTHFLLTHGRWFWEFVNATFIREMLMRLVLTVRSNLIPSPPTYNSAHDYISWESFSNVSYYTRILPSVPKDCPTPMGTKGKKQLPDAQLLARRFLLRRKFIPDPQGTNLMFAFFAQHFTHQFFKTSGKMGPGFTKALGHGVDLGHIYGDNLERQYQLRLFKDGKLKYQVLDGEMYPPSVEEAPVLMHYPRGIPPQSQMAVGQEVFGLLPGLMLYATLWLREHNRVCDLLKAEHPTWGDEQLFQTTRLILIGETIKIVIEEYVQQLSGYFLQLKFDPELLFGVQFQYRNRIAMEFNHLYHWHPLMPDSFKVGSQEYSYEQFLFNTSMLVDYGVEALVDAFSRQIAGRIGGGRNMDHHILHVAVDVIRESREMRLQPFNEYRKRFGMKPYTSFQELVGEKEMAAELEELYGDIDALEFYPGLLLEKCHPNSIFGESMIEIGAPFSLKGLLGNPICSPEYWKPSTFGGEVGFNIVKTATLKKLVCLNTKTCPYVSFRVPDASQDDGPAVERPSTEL

Ratio [1]	IC50 [2]	IC50 [3]	SMILES	ED50 (Rattus norvegicus)
> 67	> 100000 nM	1500 nM	COc1cc2c(cc1F)-c1c(c(C(F)(F)F)nn1-c1ccc(S(N)(=O)=O)cc1)[S+]([O-])C2 (centres undefined)	
36	790 nM	22 nM	Cc1ccc2c(c1)CSc1c(C(F)(F)F)nn(-c3ccc(S(N)(=O)=O)cc3)c1-2	
297	6240 nM	21 nM	NS(=O)(=O)c1ccc(-n2nc(C(F)(F)F)c3c2-c2cc(F)ccc2CS3)cc1	
> 3120	> 100000 nM	32 nM	COc1cc2c(cc1F)-c1c(c(C(F)F)nn1-c1ccc(S(N)(=O)=O)cc1)SC2	
303	2730 nM	9 nM	COc1cc2c(cc1F)-c1c(c(C(F)(F)F)nn1-c1ccc(S(N)(=O)=O)cc1)SC2	17.7 mg/kg
5.3		1330 nM	NS(=O)(=O)c1ccc(-n2nc(C(F)(F)F)c3c2-c2ccccc2OC3)cc1	
7	270 nM	40 nM	NS(=O)(=O)c1ccc(-n2nc(C(F)(F)F)c3c2-c2ccc(F)cc2CS3)cc1	
23	300 nM	13 nM	COc1ccc2c(c1)CSc1c(C(F)(F)F)nn(-c3ccc(S(N)(=O)=O)cc3)c1-2	
> 1330	> 100000 nM	75 nM	COc1cc2c(cc1F)-c1c(c(C(F)(F)F)nn1-c1ccc(S(C)(=O)=O)cc1)SC2	
20		20 nM	NS(=O)(=O)c1ccc(-n2nc(C(F)(F)F)c3c2-c2ccccc2CS3)cc1	
5	760 nM	140 nM	N#Cc1nn(-c2ccc(S(N)(=O)=O)cc2)c2c1SCc1cc(F)ccc1-2	
693	11100 nM	16 nM	Cc1cc2c(cc1F)-c1c(c(C(F)(F)F)nn1-c1ccc(S(N)(=O)=O)cc1)SC2	15 mg/kg

SMILES	Ratio [1]	IC50 [2]	IC50 [3]	ED50 (Rattus norvegicus)
NS(=O)(=O)c1ccc(-n2nc(C(F)(F)F)c3c2-c2cc(F)c(F)cc2CS3)cc1	381	2670 nM	6 nM	
